In PubChem BioAssay AID330 (DTP/NCI, 2004):
Where “and” joins values, the source holds several entries; their conditions need not be identical. Equal entries are not always repeated. Inconclusive results and toxic doses are left out. How the source made its calls: active means survival T/C of 150% or more; inactive means T/C below 125% in these data.

Tested on: P388 leukemia ip, CD2F1 mice, survival T/C
Assay: NCI In Vivo Anticancer Drug Screen. Data for tumor model P388 Leukemia (intraperitoneal) in CD2F1 (CDF1) mice
Conditions: endpoint: median survival time, higher = longer survival
Method in brief: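 Mice carrying the transplanted tumor received test compound or vehicle. Survival was recorded in each group, and the value is the treated-group measurement divided by that of the vehicle-treated control group.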

[1] = dose: 25.0 mg/kg/injection, schedule: Q01DX009 (ip), vehicle: saline with Tween-80
[2] = dose: 50.0 mg/kg/injection, schedule: Q01DX009 (ip), vehicle: saline with Tween-80
[3] = dose: 100.0 mg/kg/injection, schedule: Q01DX009 (ip), vehicle: saline with Tween-80
[4] = dose: 200.0 mg/kg/injection, schedule: Q01DX009 (ip), vehicle: saline with Tween-80
[5] = dose: 100.0 mg/kg/injection, schedule: Q01DX001 (ip), vehicle: saline
[6] = dose: 200.0 mg/kg/injection, schedule: Q01DX001 (ip), vehicle: saline
[7] = dose: 400.0 mg/kg/injection, schedule: Q01DX001 (ip), vehicle: saline
[8] = dose: 60.0 mg/kg/injection, schedule: Q01DX005 (ip), vehicle: saline
[9] = dose: 120.0 mg/kg/injection, schedule: Q01DX005 (ip), vehicle: saline
[10] = dose: 240.0 mg/kg/injection, schedule: Q01DX005 (ip), vehicle: saline
[11] = dose: 50.0 mg/kg/injection, schedule: Q01DX005 (ip), vehicle: saline
[12] = dose: 100.0 mg/kg/injection, schedule: Q01DX005 (ip), vehicle: saline
[13] = dose: 200.0 mg/kg/injection, schedule: Q01DX005 (ip), vehicle: saline
[14] = dose: 12.5 mg/kg/injection, schedule: Q01DX005 (ip), vehicle: saline with Tween-80
[15] = dose: 25.0 mg/kg/injection, schedule: Q01DX005 (ip), vehicle: saline with Tween-80
[16] = dose: 50.0 mg/kg/injection, schedule: Q01DX005 (ip), vehicle: saline with Tween-80
[17] = dose: 100.0 mg/kg/injection, schedule: Q04DX002 (ip), vehicle: saline with Tween-80
[18] = dose: 200.0 mg/kg/injection, schedule: Q04DX002 (ip), vehicle: saline with Tween-80
[19] = dose: 50.0 mg/kg/injection, schedule: Q01DX009 (ip), vehicle: Klucel (hydroxypropylcellulose) (HPC)
[20] = dose: 100.0 mg/kg/injection, schedule: Q01DX009 (ip), vehicle: Klucel (hydroxypropylcellulose) (HPC)
[21] = dose: 200.0 mg/kg/injection, schedule: Q01DX009 (ip), vehicle: Klucel (hydroxypropylcellulose) (HPC)
[22] = dose: 60.0 mg/kg/injection, schedule: Q01DX005 (ip), vehicle: saline with Tween-80
[23] = dose: 120.0 mg/kg/injection, schedule: Q01DX005 (ip), vehicle: saline with Tween-80
[24] = dose: 240.0 mg/kg/injection, schedule: Q01DX005 (ip), vehicle: saline with Tween-80

Measured: T/C

Nc1ccc2cc3c(nc2n1)[nH]c1ccccc13
inactive: dose: 1.56 mg/kg/injection, schedule: Q01DX009 (ip), vehicle: saline with Tween-80 97 % of control | dose: 3.12 mg/kg/injection, schedule: Q01DX009 (ip), vehicle: saline with Tween-80 103 % of control | dose: 6.25 mg/kg/injection, schedule: Q01DX009 (ip), vehicle: saline with Tween-80 100 % of control | dose: 12.5 mg/kg/injection, schedule: Q01DX009 (ip), vehicle: saline with Tween-80 102 % of control | [1] 118 % of control

O=C1NN(c2ccccc2)C(=O)/C1=C\c1ccccc1
inactive: [2] 91 % of control | dose: 75.0 mg/kg/injection, schedule: Q01DX009 (ip), vehicle: saline with Tween-80 100 % of control | [3] 94 % of control | dose: 150.0 mg/kg/injection, schedule: Q01DX009 (ip), vehicle: saline with Tween-80 99 % of control | [4] 95 % of control | dose: 300.0 mg/kg/injection, schedule: Q01DX009 (ip), vehicle: saline with Tween-80 95 % of control | dose: 400.0 mg/kg/injection, schedule: Q01DX009 (ip), vehicle: saline with Tween-80 114 % of control | dose: 600.0 mg/kg/injection, schedule: Q01DX009 (ip), vehicle: saline with Tween-80 104 % of control

N#CCc1c(C2(c3ccncc3)OCCO2)[nH]c2ccccc12
inactive: [5] 104 % of control | [6] 113 % of control | [7] 98 % of control

O=C(O)CCCCOC(C[N+](=O)[O-])C(Cl)(Cl)Cl (stereo not drawn)
inactive: [2] 100 % of control | [3] 95 % of control | [4] 99 % of control

Cc1[nH]c(=O)n(C(C)C)c(=O)c1Br
inactive: dose: 100.0 mg/kg/injection, schedule: Q01DX001 (ip), vehicle: saline sonified 100 % of control | dose: 200.0 mg/kg/injection, schedule: Q01DX001 (ip), vehicle: saline sonified 100 % of control | dose: 400.0 mg/kg/injection, schedule: Q01DX001 (ip), vehicle: saline sonified 100 % of control

O=C1CC(C(=O)O)N(C(=O)Oc2ccccc2)C(C(=O)O)C1 (stereo not drawn)
inactive: dose: 4.38 mg/kg/injection, schedule: Q01DX005 (ip), vehicle: Klucel (hydroxypropylcellulose) (HPC) 98 % of control | dose: 8.75 mg/kg/injection, schedule: Q01DX005 (ip), vehicle: Klucel (hydroxypropylcellulose) (HPC) 105 % of control | dose: 17.5 mg/kg/injection, schedule: Q01DX005 (ip), vehicle: Klucel (hydroxypropylcellulose) (HPC) 101 % of control

CCOC(=O)C12OC(=O)CC(NC1C(=O)OC(C)(C)C)C2O (stereo not drawn)
inactive: [8] 98 % of control | [9] 91 % of control | [10] 104 % of control

O=c1[nH]cc(CN(CCO)CCO)c(=O)[nH]1
inactive: [11] 106 % of control | [12] 105 % of control | [13] 99 % of control

O=[N+]([O-])c1ccc2c(ccc3sc4ccccc4[n+]32)c1
inactive: dose: 6.25 mg/kg/injection, schedule: Q01DX005 (ip), vehicle: saline with Tween-80 95 % of control | [14] 108 % of control | [15] 111 % of control | [16] 112 % of control

[Cu+2].[O-]/C(=N\N=C\c1ccccn1)c1ccccc1O.[O-]/C(=N\N=C\c1ccccn1)c1ccccc1O
inactive: dose: 50.0 mg/kg/injection, schedule: Q04DX002 (ip), vehicle: saline with Tween-80 98 % of control | [17] 95 % of control | [18] 94 % of control

NC(CCC(=O)NCC(=O)O)C(=O)O (stereo not drawn)
inactive: [11] 94 % of control | [12] 104 % of control | [13] 102 % of control

C[n+]1cccc2c1C(=O)C(=O)c1c-2ccc[n+]1C
inactive: [17] 120 % of control | [18] 105 % of control

O=C(O)C1(NO)CCCCC1
inactive: dose: 25.0 mg/kg/injection, schedule: Q01DX009 (ip), vehicle: Klucel (hydroxypropylcellulose) (HPC) 105 % of control | [19] 107 % of control and 110 % of control and 115 % of control | [2] 107 % of control and 119 % of control | [20] 105 % of control and 108 % of control and 119 % of control | [3] 120 % of control and 123 % of control | [21] 111 % of control and 87 % of control | [4] 99 % of control and 119 % of control | dose: 400.0 mg/kg/injection, schedule: Q01DX009 (ip), vehicle: Klucel (hydroxypropylcellulose) (HPC) 110 % of control and 96 % of control | dose: 600.0 mg/kg/injection, schedule: Q01DX009 (ip), vehicle: Klucel (hydroxypropylcellulose) (HPC) 101 % of control and 98 % of control

Nc1cccc(SC2CC(=O)N(c3ccc(Cl)cc3C(=O)c3ccccc3)C2=O)c1 (stereo not drawn)
inactive: [19] 105 % of control | [20] 99 % of control | [21] 89 % of control

O=c1c2ccccc2nc2ccc(Cl)nn12
inactive: [2] 95 % of control | [3] 100 % of control

Cc1ccc(S(=O)(=O)CS(N)(=O)=O)cc1
inactive: dose: 100.0 mg/kg/injection, schedule: Q01DX001 (ip), vehicle: saline with Tween-80 99 % of control | dose: 200.0 mg/kg/injection, schedule: Q01DX001 (ip), vehicle: saline with Tween-80 118 % of control | dose: 400.0 mg/kg/injection, schedule: Q01DX001 (ip), vehicle: saline with Tween-80 97 % of control

CCC(O)C(C)C=O (stereo not drawn)
inactive: [8] 107 % of control | [9] 100 % of control | [10] 104 % of control

COc1ccc(-n2c(C)nc3c(cnn3CN3CCCCC3)c2=O)cc1
inactive: dose: 60.0 mg/kg/injection, schedule: Q01DX005 (ip), vehicle: Klucel (hydroxypropylcellulose) (HPC) 102 % of control | dose: 120.0 mg/kg/injection, schedule: Q01DX005 (ip), vehicle: Klucel (hydroxypropylcellulose) (HPC) 102 % of control | dose: 240.0 mg/kg/injection, schedule: Q01DX005 (ip), vehicle: Klucel (hydroxypropylcellulose) (HPC) 94 % of control

Cn1c(=O)c2c(nc(CF)n2C)n(C)c1=O
inactive: [5] 92 % of control | [6] 96 % of control

O=C(O)CS(=O)(=O)CCCCS(=O)(=O)CC(=O)O
inactive: dose: 50.0 mg/kg/injection, schedule: Q01DX009 (ip), vehicle: saline 104 % of control | dose: 100.0 mg/kg/injection, schedule: Q01DX009 (ip), vehicle: saline 103 % of control | dose: 200.0 mg/kg/injection, schedule: Q01DX009 (ip), vehicle: saline 100 % of control

CC(C)(C)/C=C/N1CCN=N1
inactive: [14] 100 % of control | [15] 104 % of control | [16] 102 % of control and 109 % of control

CS(=O)CCN=Cc1ccc(N=Nc2ccc(O)cc2)cc1 (stereo not drawn)
inactive: [22] 103 % of control | [23] 103 % of control | [24] 97 % of control

O=C1c2ccccc2C(=O)c2c1ccc1ccccc21
inactive: [16] 99 % of control | dose: 100.0 mg/kg/injection, schedule: Q01DX005 (ip), vehicle: saline with Tween-80 89 % of control

O=C(O)CCNS(=O)(=O)c1ccc2c(c1)-c1ccccc1C2
inactive: [1] 92 % of control | [2] 102 % of control and 104 % of control and 97 % of control | [3] 101 % of control and 107 % of control and 98 % of control | [4] 102 % of control and 124 % of control

Brc1cc(Br)cc(CN2CCOCC2)c1
inactive: [22] 98 % of control | [23] 100 % of control | [24] 106 % of control

O=c1oc2c3c4c(cc2c2c1CCC2)CCCN4CCC3
inactive: dose: 100.0 mg/kg/injection, schedule: Q04DX003 (ip), vehicle: Klucel (hydroxypropylcellulose) (HPC) 102 % of control | dose: 200.0 mg/kg/injection, schedule: Q04DX003 (ip), vehicle: Klucel (hydroxypropylcellulose) (HPC) 101 % of control | dose: 400.0 mg/kg/injection, schedule: Q04DX003 (ip), vehicle: Klucel (hydroxypropylcellulose) (HPC) 100 % of control

CN(C)c1ccc(-c2nc(=O)[nH]c(=O)s2)cc1
inactive: [2] 102 % of control | [3] 100 % of control | [4] 98 % of control

CC(=O)NNC1=NC(C)(C)CC1
inactive: [5] 97 % of control | [6] 102 % of control | [7] 102 % of control

CC(C)(CO)CN1CCCCC1
inactive: dose: 50.0 mg/kg/injection, schedule: Q04DX003 (ip), vehicle: saline with Tween-80 100 % of control | dose: 100.0 mg/kg/injection, schedule: Q04DX003 (ip), vehicle: saline with Tween-80 100 % of control | dose: 200.0 mg/kg/injection, schedule: Q04DX003 (ip), vehicle: saline with Tween-80 100 % of control
